Measured values reported in US20020137929A1, “1 - (3-heterocyclylphenyl) isothiourea, -isourea, -guanidine and -amidine herbicidal agents” (Intellectual Property Department, BASF Aktiengesellschaft, priority 1998, published 2002).

Assays:
[1] = system: IPOHE (Morningglory, Ivyleaf); test: Postemergence herbicidal evaluation; assay type: in vivo, Ipomoea hederacea; settings: postemergence
Outline: (§1)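 Visual 0-9 injury score (stand, vigor, malformation, size, chlorosis, appearance vs untreated) taken four to five weeks post-spray, averaged across repeat tests. Test plants about two weeks old; foliar spray of acetone/water (1:1) with 0.5% surfactant delivering ~0.0156-0.500 kg active/ha.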

[2] = system: ECHORC (Watergrass (Calif.)); test: Postemergence weed control under flooded paddy conditions; assay type: in vivo, Echinochloa oryzoides; settings: postemergence weeds, 3-4 weeks after treatment
Outline: (§2)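 Containers holding 3–5 cm weeds and rice at 1.5–2.5 leaves are flooded to 1.5–3 cm above soil. Compound in 50/50 v/v aqueous/acetone is then added directly to the water, about 0.0313–0.500 kg/ha. Plants are kept in the greenhouse and rated 0–9 visually at 3–4 weeks.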

[3] = system: ECHORC (Watergrass (Calif.)); test: Preemergence weed control under flooded paddy conditions; assay type: in vivo, Echinochloa oryzoides; settings: rated 3-4 weeks after treatment
Outline: (§3)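 Seeds or propagules sown in top 0.5 cm of silt loam soil, flooded 1.5 to 3 cm above surface throughout. Compound in 50/50 v/v aqueous/acetone pipetted into flood water at about 0.0313 to 0.500 kg/ha. Visual 0-9 rating versus control after three to four weeks in greenhouse.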

[4] = system: MOOVA (Monochoria); test: as above; assay type: in vivo, Monochoria vaginalis; settings: rated 3-4 weeks after treatment
Outline: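 Herbicidal effect is scored visually on a 0-9 scale against an untreated control, three to four weeks after compounds are pipetted into the flood water (1.5 to 3 cm deep) over seeds planted in silt loam at 0.5 cm depth. Rates: about 0.0313 to 0.500 kg/ha.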

[5] = system: IPOHE (Morningglory, Ivyleaf); test: Preemergence herbicidal evaluation; assay type: in vivo, Ipomoea hederacea; settings: rated 4-5 weeks after treatment
Outline: (§4)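 Seeds were planted in potting soil in cups, then sprayed preemergence with the test compound in aqueous acetone at about 0.0156 to 0.500 kg per hectare. Cups were kept under greenhouse conditions and visually rated 4–5 weeks after treatment on a 0–9 scale against an untreated control.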

[6] = system: SETVI (Foxtail, Green); test: Postemergence herbicidal evaluation; assay type: in vivo, Setaria viridis; settings: postemergence
Outline: as §1

[7] = system: ZEAMX (Corn, Field); test: Preemergence herbicidal evaluation; assay type: in vivo, Zea mays; settings: rated 4-5 weeks after treatment
Outline: as §4

[8] = system: CYPIR (Rice Flatsedge); test: Preemergence weed control under flooded paddy conditions; assay type: in vivo, Cyperus iria; settings: rated 3-4 weeks after treatment
Outline: as §3

[9] = system: ABUTH (Velvetleaf); test: Preemergence herbicidal evaluation; assay type: in vivo, Abutilon theophrasti; settings: rated 4-5 weeks after treatment
Outline: as §4

[10] = system: SETVI (Foxtail, Green); test: Preemergence herbicidal evaluation; assay type: in vivo, Setaria viridis; settings: rated 4-5 weeks after treatment
Outline: as §4

[11] = system: GALAP (Galium); test: Postemergence herbicidal evaluation; assay type: in vivo, Galium aparine; settings: postemergence
Outline: as §1

[12] = system: ECHCG (Barnyardgrass); test: Preemergence herbicidal evaluation; assay type: in vivo, Echinochloa crus-galli; settings: rated 4-5 weeks after treatment
Outline: as §4

[13] = system: TRZAWR (Wheat, Winter, cv Riband); test: Postemergence herbicidal evaluation; assay type: in vivo, Triticum aestivum; settings: postemergence
Outline: as §1

[14] = system: SAGPY (Arrowhead (Pygmaea)); test: Postemergence weed control under flooded paddy conditions; assay type: in vivo, Sagittaria pygmaea; settings: postemergence weeds, 3-4 weeks after treatment
Outline: as §2

Cn1c(C(F)(F)F)cc(=O)n(-c2cc(N=C3SCC(=O)N3Cc3ccccc3)c(Cl)cc2F)c1=O [Compound 26]
IPOHE herbicidal rating ([1]; rate 0.0156 kg/ha): 9.0 | IPOHE herbicidal rating ([1]; rate 0.0313 kg/ha): 9.0 | IPOHE herbicidal rating ([1]; rate 0.0625 kg/ha): 9.0 | Herbicidal rating ECHORC ([2]; rate 0.0313 kg/ha): 7.0 | Herbicidal rating ECHORC ([2]; rate 0.0625 kg/ha): 9.0 | Herbicidal rating ECHORC ([2]; rate 0.1250 kg/ha): 9.0 | Herbicidal rating ECHORC ([2]; rate 0.2500 kg/ha): 9.0 | Herbicidal rating ECHORC ([3]; 0.0313 kg/ha): 7.0 | Herbicidal rating ECHORC ([3]; 0.0625 kg/ha): 9.0 | Herbicidal rating ECHORC ([3]; 0.1250 kg/ha): 9.0 | Herbicidal rating ECHORC ([3]; 0.2500 kg/ha): 9.0 | Herbicidal rating MOOVA ([4]; 0.0313 kg/ha): 9.0 | Herbicidal rating MOOVA ([4]; 0.0625 kg/ha): 9.0 | Herbicidal rating MOOVA ([4]; 0.1250 kg/ha): 9.0 | Herbicidal rating MOOVA ([4]; 0.2500 kg/ha): 9.0 | Preemergence herbicidal rating IPOHE ([5]; rate 0.0156 kg/ha): 0.0 | Preemergence herbicidal rating IPOHE ([5]; rate 0.0313 kg/ha): 0.0 | Preemergence herbicidal rating IPOHE ([5]; rate 0.0625 kg/ha): 0.0 | Preemergence herbicidal rating IPOHE ([5]; rate 0.1250 kg/ha): 2.0 | Preemergence herbicidal rating IPOHE ([5]; rate 0.2500 kg/ha): 3.0 | SETVI herbicidal rating ([6]; rate 0.0156 kg/ha): 0.0 | SETVI herbicidal rating ([6]; rate 0.0313 kg/ha): 0.0 | SETVI herbicidal rating ([6]; rate 0.0625 kg/ha): 0.0 | Preemergence herbicidal rating ZEAMX ([7]; rate 0.0156 kg/ha): 0.0 | Preemergence herbicidal rating ZEAMX ([7]; rate 0.0313 kg/ha): 0.0 | Preemergence herbicidal rating ZEAMX ([7]; rate 0.0625 kg/ha): 2.0 | Preemergence herbicidal rating ZEAMX ([7]; rate 0.1250 kg/ha): 4.0 | Preemergence herbicidal rating ZEAMX ([7]; rate 0.2500 kg/ha): 5.0 | Herbicidal rating CYPIR ([8]; 0.0313 kg/ha): 2.0 | Herbicidal rating CYPIR ([8]; 0.0625 kg/ha): 4.0 | Herbicidal rating CYPIR ([8]; 0.1250 kg/ha): 7.0 | Herbicidal rating CYPIR ([8]; 0.2500 kg/ha): 9.0 | Preemergence herbicidal rating ABUTH ([9]; rate 0.0156 kg/ha): 0.0 | Preemergence herbicidal rating ABUTH ([9]; rate 0.0313 kg/ha): 0.0 | Preemergence herbicidal rating ABUTH ([9]; rate 0.0625 kg/ha): 0.0 | Preemergence herbicidal rating ABUTH ([9]; rate 0.1250 kg/ha): 6.0 | Preemergence herbicidal rating ABUTH ([9]; rate 0.2500 kg/ha): 9.0 | Preemergence herbicidal rating SETVI ([10]; rate 0.0156 kg/ha): 0.0 | Preemergence herbicidal rating SETVI ([10]; rate 0.0313 kg/ha): 0.0 | Preemergence herbicidal rating SETVI ([10]; rate 0.0625 kg/ha): 0.0 | Preemergence herbicidal rating SETVI ([10]; rate 0.1250 kg/ha): 5.0 | Preemergence herbicidal rating SETVI ([10]; rate 0.2500 kg/ha): 9.0 | GALAP herbicidal rating ([11]; rate 0.0156 kg/ha): 3.0 | GALAP herbicidal rating ([11]; rate 0.0313 kg/ha): 5.0 | GALAP herbicidal rating ([11]; rate 0.0625 kg/ha): 5.0 | Preemergence herbicidal rating ECHCG ([12]; rate 0.0156 kg/ha): 0.0 | Preemergence herbicidal rating ECHCG ([12]; rate 0.0313 kg/ha): 0.0 | Preemergence herbicidal rating ECHCG ([12]; rate 0.0625 kg/ha): 0.0 | Preemergence herbicidal rating ECHCG ([12]; rate 0.1250 kg/ha): 1.0 | Preemergence herbicidal rating ECHCG ([12]; rate 0.2500 kg/ha): 2.0 | TRZAWR herbicidal rating ([13]; rate 0.0156 kg/ha): 1.5 | TRZAWR herbicidal rating ([13]; rate 0.0313 kg/ha): 2.5 | TRZAWR herbicidal rating ([13]; rate 0.0625 kg/ha): 3.5 | Herbicidal rating SAGPY ([14]; rate 0.0313 kg/ha): 0.0 | Herbicidal rating SAGPY ([14]; rate 0.0625 kg/ha): 4.0 | Herbicidal rating SAGPY ([14]; rate 0.1250 kg/ha): 5.0 | Herbicidal rating SAGPY ([14]; rate 0.2500 kg/ha): 7.0
